The results in this text go back to patent publication EP4620959A1, “CYCLIC COMPOUNDS USED AS MULTI-TARGET KINASE INHIBITORS AND PREPARATION METHOD THEREFOR” (Shanghai Institute of Organic Chemistry, Chinese Academy of …, priority 2022, dated 2024).

Molecules are shown by their SMILES. pIC50: −log10 of the molar value.

By inhibition is commonly meant the drop in the measured response relative to a control, in per cent. A word on the pIC50: it is the IC50 on a negative log10 scale, so that one unit is a factor of ten.

One experiment has as its target LRRK2 wt (Homo sapiens, UniProt Q5S007). Kind of experiment: Kinase activity inhibition assay (ADP-Glo), LRRK2 wt. It is filed as biochemical. Conditions: for inhibition at 0.1 µM: read-out: LRRK2 wt inhibition rate at 100 nM, ATP 20 µM, compound at 100 nM; for inhibition at 0.3 µM: read-out: LRRK2 wt inhibition rate @300 nM, ATP 20 µM, compound at 300 nM. How it is done:
(§1) The kinase activity inhibition assay was performed by ICE Bioscience (Beijing) using ADP-Glo and HTRF methods.
(§2) Table 1.1-1 ADP-Glo Buffer
(§3) Table 1.2-1 ADP-Glo Kinase and Substrate Formulation
(§4) SD is the standard error, and AVE is the average value. Table 2-1 LRRK2 Activity Inhibition Test Results

The target in the next experiment is LRRK2 G2019S (Homo sapiens, UniProt Q5S007, G2019S). Kind of experiment: Kinase activity inhibition assay (ADP-Glo), LRRK2 G2019S. It is filed as biochemical. The following applies: for inhibition at 0.1 µM: read-out: LRRK2 G2019S inhibition rate at 100 nM, ATP 100 µM, compound at 100 nM. As for the experimental part: as §1, §2, §3, §4
In general terms: ADP-Glo turns the ADP formed in a reaction into a luminescent signal.

Sequence of LRRK2 wt (Q5S007 whole entry): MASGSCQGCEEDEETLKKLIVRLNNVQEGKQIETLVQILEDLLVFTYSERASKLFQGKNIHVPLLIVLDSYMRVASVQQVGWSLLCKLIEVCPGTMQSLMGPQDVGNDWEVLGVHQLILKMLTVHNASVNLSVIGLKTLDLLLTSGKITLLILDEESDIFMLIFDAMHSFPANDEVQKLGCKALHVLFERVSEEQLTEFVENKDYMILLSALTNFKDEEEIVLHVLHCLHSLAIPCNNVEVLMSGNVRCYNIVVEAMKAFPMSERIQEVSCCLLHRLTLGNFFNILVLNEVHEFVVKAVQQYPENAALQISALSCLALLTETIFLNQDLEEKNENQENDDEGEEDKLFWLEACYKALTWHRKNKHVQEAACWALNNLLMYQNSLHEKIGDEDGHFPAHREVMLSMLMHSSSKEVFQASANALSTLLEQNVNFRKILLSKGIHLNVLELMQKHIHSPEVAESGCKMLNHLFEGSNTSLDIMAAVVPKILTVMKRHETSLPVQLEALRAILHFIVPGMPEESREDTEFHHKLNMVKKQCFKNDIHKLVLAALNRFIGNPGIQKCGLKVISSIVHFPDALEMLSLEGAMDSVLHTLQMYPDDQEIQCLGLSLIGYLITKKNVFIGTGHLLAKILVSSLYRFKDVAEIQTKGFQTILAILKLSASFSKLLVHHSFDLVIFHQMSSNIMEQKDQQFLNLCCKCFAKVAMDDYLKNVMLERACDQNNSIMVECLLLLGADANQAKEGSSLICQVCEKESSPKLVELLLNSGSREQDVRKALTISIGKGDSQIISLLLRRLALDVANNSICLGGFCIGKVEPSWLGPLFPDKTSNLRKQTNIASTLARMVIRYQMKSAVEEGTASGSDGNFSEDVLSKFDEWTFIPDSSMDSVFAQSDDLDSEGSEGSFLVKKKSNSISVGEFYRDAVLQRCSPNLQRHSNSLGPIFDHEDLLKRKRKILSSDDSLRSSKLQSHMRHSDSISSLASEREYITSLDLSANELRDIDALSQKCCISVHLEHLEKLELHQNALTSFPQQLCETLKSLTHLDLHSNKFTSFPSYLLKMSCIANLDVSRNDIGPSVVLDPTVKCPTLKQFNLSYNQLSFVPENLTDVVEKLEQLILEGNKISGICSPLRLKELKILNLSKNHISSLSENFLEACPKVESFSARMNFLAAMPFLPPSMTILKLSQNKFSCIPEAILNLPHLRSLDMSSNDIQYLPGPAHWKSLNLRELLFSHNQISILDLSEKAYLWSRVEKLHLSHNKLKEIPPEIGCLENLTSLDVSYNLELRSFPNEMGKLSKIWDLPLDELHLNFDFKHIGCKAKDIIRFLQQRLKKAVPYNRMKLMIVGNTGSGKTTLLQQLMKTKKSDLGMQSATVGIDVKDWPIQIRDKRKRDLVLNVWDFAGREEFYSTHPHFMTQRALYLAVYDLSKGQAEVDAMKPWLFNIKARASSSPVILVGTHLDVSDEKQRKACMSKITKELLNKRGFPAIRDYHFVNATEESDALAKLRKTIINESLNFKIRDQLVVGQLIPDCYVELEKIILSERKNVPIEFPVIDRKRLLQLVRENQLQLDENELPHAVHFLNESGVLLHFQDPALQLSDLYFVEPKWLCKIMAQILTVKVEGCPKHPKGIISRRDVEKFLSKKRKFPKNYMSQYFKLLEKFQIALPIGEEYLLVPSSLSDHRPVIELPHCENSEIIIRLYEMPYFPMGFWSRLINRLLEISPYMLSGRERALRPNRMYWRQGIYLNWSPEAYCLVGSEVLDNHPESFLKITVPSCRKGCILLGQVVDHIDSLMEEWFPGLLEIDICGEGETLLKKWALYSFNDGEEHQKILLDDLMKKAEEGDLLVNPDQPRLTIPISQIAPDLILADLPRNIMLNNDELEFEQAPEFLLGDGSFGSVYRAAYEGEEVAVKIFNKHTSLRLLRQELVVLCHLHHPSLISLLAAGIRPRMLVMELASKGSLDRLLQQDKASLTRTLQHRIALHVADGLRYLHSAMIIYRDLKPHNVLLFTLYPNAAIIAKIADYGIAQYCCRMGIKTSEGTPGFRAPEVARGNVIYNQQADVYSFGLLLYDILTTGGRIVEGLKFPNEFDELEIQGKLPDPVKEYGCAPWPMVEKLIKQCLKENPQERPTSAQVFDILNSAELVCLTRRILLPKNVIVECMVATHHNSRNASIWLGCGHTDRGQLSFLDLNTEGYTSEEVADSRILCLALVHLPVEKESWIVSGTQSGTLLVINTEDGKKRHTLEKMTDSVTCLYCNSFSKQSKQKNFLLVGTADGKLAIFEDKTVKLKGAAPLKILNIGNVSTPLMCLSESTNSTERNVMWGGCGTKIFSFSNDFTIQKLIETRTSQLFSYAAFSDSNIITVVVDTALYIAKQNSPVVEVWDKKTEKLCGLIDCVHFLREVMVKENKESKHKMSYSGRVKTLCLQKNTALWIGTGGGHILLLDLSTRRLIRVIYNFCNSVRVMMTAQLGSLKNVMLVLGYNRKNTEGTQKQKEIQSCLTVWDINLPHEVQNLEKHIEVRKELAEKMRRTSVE
Sequence of LRRK2 G2019S (Q5S007 whole entry G2019S): as the sequence (Q5S007 whole entry) above, with G2019S counted along it

As to `CN1CCCNc2nc(ncc2C(F)(F)F)Nc2cn(nc2C2CC2)C2CC2C1=O` (racemic) [Example T-10, (1^1R,1^2S,2^1R,E)-2^3-Cyclopropyl-9-methyl-4^5-(trifluoromethyl)-2^1H-3,5,9-triaza-4(2,4)-pyrimidina-2(1,4)-pyrazola-1(1,2)-cyclopropacyclodecan-10-one], the inhibition at 0.1 µM was 94% at LRRK2 wt and 92% on LRRK2 G2019S.

As for `O=C1NCCCNc2nc(ncc2C(F)(F)F)Nc2cn(nc2C2CC2)C2CC12` (racemic) [Example T-11, (1^1R,1^2R,2^1S,E)-2^3-Cyclopropyl-4^5-(trifluoromethyl)-2^1H-3,5,9-triaza-4(2,4)-pyrimidina-2(1,4)-pyrazola-1(1,2)-cyclopropacyclodecan-10-one], the inhibition at 0.1 µM amounted to 89% on LRRK2 wt and 90% at LRRK2 G2019S.

On to `CNc1nc(Nc2cn(C(C)(C)C#N)nc2C)ncc1C(F)(F)F` [DNL-201], for which the pIC50 against LRRK2 wt (ATP 20 µM) is 8.90; against LRRK2 G2019S (ATP 100 µM), 8.54.

On to `Cc1nn2cc1Nc1ncc3c(Cl)cn(c3n1)CCCNC(=O)C2(C)C` [Example T-6, (E)-1^5-Chloro-3^3,4,4-trimethyl-1^7H,3^1H-2,6-diaza-1(2,7)-pyrrolo[2,3-d]pyrimidine-3(4,1)-pyrazolacyclononan-5-one], for which the inhibition at 0.1 µM was 92% on LRRK2 wt and 88% at LRRK2 G2019S.

On to `Cc1nn2cc1Nc1ncc3c(Cl)cn(c3n1)CCCN(C)C(=O)C2(C)C` [Example T-7, (E)-1^5-Chloro-3^3,4,4,6-tetramethyl-1^7H,3^1H-2,6-diaza-1(2,7)-pyrrolo[2,3-d]pyrimidine-3(4,1)-pyrazolacyclononan-5-one], for which the inhibition at 0.3 µM at LRRK2 wt turned out to be 7%. Further, the inhibition at 0.1 µM on LRRK2 G2019S was 4.3%.

Take `Cc1nn2cc1Nc1ncc3c(Cl)nn(c3n1)CCCNC(=O)C2(C)C` [Example T-8, (E)-1^3-Chloro-3^3,4,4-trimethyl-1^1H,3^1H-2,6-diaza-1(6,1)pyrazolo[3,4-d]pyrimidine-3(4,1)-pyrazolacyclononan-5-one]: the values for the inhibition at 0.1 µM on LRRK2 wt and on LRRK2 G2019S were 64% and 52%, respectively.

Regarding `Cc1nn2cc1Nc1ncc(C(F)(F)F)c(n1)NCCNC(=O)C2(C)C` [Example T-12, (E)-3^3,4,4-Trimethyl-1^5-(trifluoromethyl)-3^1H-2,6,9-triaza-1(2,4)-pyrimidina-3(4,1)-pyrazolacyclononan-5-one], the inhibition at 0.1 µM at LRRK2 wt stood at 5.7%. Further, the inhibition at 0.3 µM at LRRK2 G2019S (read-out: LRRK2 G2019S inhibition rate @300 nM, ATP 100 µM, compound at 300 nM) was found to be 0.34%.

In the case of `Cc1nn2cc1Nc1ncc(C(F)(F)F)c(n1)NCCCCNC(=O)C2(C)C` [Example T-13, (E)-3^3,4,4-Trimethyl-1^5-(trifluoromethyl)-3^1H-2,6,11-triaza-1(2,4)-pyrimidina-3(4,1)-pyrazolacycloundecan-5-one], the inhibition at 0.1 µM at LRRK2 wt was found to be 96%; on LRRK2 G2019S, 92%.

Take `Cc1nn2cc1Nc1ncc(C(F)(F)F)c(n1)NCCCNC(=O)C2` [Example T-14, (E)-3^3-Methyl-1^5-(trifluoromethyl)-3^1H-2,6,10-triaza-1(2,4)-pyrimidina-3(4,1)-pyrazolacyclodecan-5-one]: the inhibition at 0.1 µM at LRRK2 wt was 87%; at LRRK2 G2019S, 84%.

For `Cc1nn2cc1Nc1ncc(C(F)(F)F)c(n1)NCCNC(=O)C2` [Example T-15, (E)-3^3-Methyl-1^5-(trifluoromethyl)-3^1H-2,6,9-triaza-1(2,4)-pyrimidina-3(4,1)-pyrazolacyclononan-5-one], the inhibition at 0.3 µM at LRRK2 wt was determined as 5%. On LRRK2 G2019S, the inhibition at 0.1 µM was -9.6%.

For the compound `Cc1nn2cc1Nc1ncc(C(F)(F)F)c(n1)NC(C)(C)CCNC(=O)C2(C)C` [Example T-45, (E)-3^3,4,4,9,9-Pentamethyl-1^5-(trifluoromethyl)-3^1H-2,6,10-triaza-1(2,4)-pyrimidina-3(4,1)-pyrazolacyclodecan-5-one], at LRRK2 wt, the inhibition at 0.1 µM was -1.97%.

For `Cc1nn2cc1Nc1ncc(C(F)(F)F)c(n1)NC(C)CCNC(=O)C2(C)C` (stereo not shown) [Example T-46, (E)-3^3,4,4,9-Tetramethyl-1^5-(trifluoromethyl)-3^1H-2,6,10-triaza-1(2,4)-pyrimidina-3(4,1)-pyrazolacyclodecan-5-one], the inhibition at 0.1 µM on LRRK2 wt came to 95.1%.
